Consider one compound from patent publication US20240423988A1, “Improvement of Tumor Immunogenicity by Means of Splicing-Controlling Compound” (Kyoto University, priority 2021, published 2024).

The structures appear in SMILES notation.

Assay [1] relates to MC38 cells. The experiment in a line: RNA-seq analysis of RNA splicing patterns in MC38 cells. The assay is classed as cell-based, murine. The protocol:
[FIG. 4-1] FIG. 4. Identification of Compound 1-inducible splice-neoantigen candidates using RNA-seq analysis. A: A diagram of enhanced tumor immunity through compound 1-induced splice-neoantigens. B: A scheme for the screening of Compound 1-induced splice-neoantigen candidates through transcriptome analysis and prediction for MHC class I presentation. RNA-seq was conducted for MC38 cells treated with 10 μM Compound 1 or 0.1% DMSO for 6 hours in three biological replicates each. RNA-seq analysis was performed as detailed in the “Experimental Methods” section.
Aberrant selective splicing events in cancer cells may become a source of potential neoantigens. As it was confirmed that MHC class I in cancer cells is indispensable for the antitumor effects of Compound 1, Compound 1 was predicted to alter aberrant alternative splicing events and enhance the production of splice-neoantigens (FIG. 4-1A). To validate this concept, RNA-seq analysis was performed to assess RNA splicing patterns affected by Compound 1 in MC38 cells and splice products yielding potential neoantigens capable of binding to MHC class I (FIG. 4-1B). […] Next, to identify neoepitopes translating potential splice-neoantigens, splicing events elicited by Compound 1 that created abnormal coding sequences were extracted, and subsequently, whether these events create abnormal peptides were checked by comparing them with a reference peptide database.
With this approach, 169 Compound 1-induced non-annotated splice events for 130 genes were identified as neoantigen candidates, which were further subjected to prioritization based on the prediction scores for the binding affinity of each peptide to MHC class I alleles (H2-K^b and H2-D^b) with NetMHCpan4.1, the extents of splice rates, and mRNA expression (FIG. 4-2C).
RNA-Seq libraries were prepared using a TruSeq Stranded mRNA Library Kit (Illumina, San Diego, CA) and used for paired-end sequencing on an Illumina NovaSeq 6000 platform. RNA-seq data were mapped to the GRCm38 (mm10) genome sequence using HISAT2 program version 2.2.0 with the “--rna-strandness RF” option. Splice-junction information available from Ensembl gene annotation version 100 was used in this process. Mapped results were discarded when either of the paired reads was not mapped to the genome, or the relationships of mapping positions were abnormal.
For splicing analysis, rMATS program version 4.1.0 was used. For the reference transcript models used in the rMATS analysis, a set of new transcripts based on RNA-seq data was constructed using Cufflinks program version 2.2.1. Because the rMATS program skips soft-clipped reads and reads having indels in their alignment, bam files were modified to replace soft clipping and indel information as not changing the splice position information. After rMATS analysis, altered splicing events were extracted according to the following criteria: FDR<0.01, dPSI≥5.0, and average number of spliced reads≥15 in either of the samples.
Spliced regions were compared with Ensembl gene annotations for describing the amino acid sequence encoded in these regions. Amino acid sequences not observed in the original peptide database were searched and stored with seven amino acids margins from known sequences.

Assay [2] concerns MC38 cells. Description: RT-PCR analysis with neojunction primers. Particulars: 10 μM, 6 hours. The assay is classed as cell-based, murine. The protocol:
[FIG. 5-2] Continuation of FIG. 5. D and E: RT-PCR analysis for splice-neoantigen coding forms (splice-NA forms) in MC38 cells treated with 10 µM Compound 1 or vehicle control (0.1% DMSO) for 6 hours. Actb served as a loading control. * represents p<0.05, ** represents p<0.01, and *** represents p<0.001. F: Splice-neoantigen producing rates calculated from RNA-seq data (n=3 biological replicates) are indicated as the APSI (Compound 1-DMSO). All data are shown as the mean±SEM. All experiments were performed at least twice. Statistical significance was determined using unpaired Student's t-test for (B) and (E).
In addition to the RNA-seq analysis, the induction of these splice-neoantigen-coding transcripts via treatment with Compound 1 was also validated using RT-PCR analysis with neojunction primers in MC38 cells (FIGS. 5-2D and 5-2E). The immunogenicity of the identified splice-neoantigens was confirmed using an IFN-γ ELISpot assay.
Total RNA was extracted from cells using a RNeasy Mini Kit (Qiagen), according to the manufacturer's protocol, and subjected to reverse transcription using a High Capacity cDNA Reverse Transcription Kit (Applied Biosystems, Foster City, CA). Genes were amplified with KOD One DNA polymerase (ToYoBo) and target-specific primer sets. […] Ethidium bromide-stained images were captured using a ChemiDoc MP Imaging System and the data were analyzed using ImageJ software. […]

For `Clc1nc(NCc2ccco2)c2[nH]cnc2n1` [Compound 1], in the assay on MC38 cells [1], the “exonization induced in neurofibromin 1 (Nf1)” value is on record as 108 bp. Besides, in the assay with MC38 cells [1] (10 μM, 6 hours), the “genes with induced non-annotated splice events” value was 130 and the “induced non-annotated splice events identified as neoantigen candidates” value amounted to 169. Besides, the “mRNA expression and splicing patterns of H2-K^b and PD-L1” value in the assay on MC38 cells [1] (RNA-seq data) is “not significantly altered”. Also, the “mRNA expression of genes encoding conventional neoantigens” value in the assay with MC38 cells [1] (data not shown) was “no effect”. The splice-neoantigen-coding transcripts result in the assay on MC38 cells [2] is “induction”.
